This is an account of results in publication PMC7385626 (Scientific Reports, 2020).

Several values for one entry are separate records, joined by “and”; a condition that tells them apart may be missing. Equal entries are not always repeated.

For one test, the system named is St. pyogenez ATCC176. Kind of test: Disc diffusion assay. The format is cell-based, Steptococcus Pyogerez. The procedure:
(§1) Therefore, the pathogen bacterial flora and the opportunistic agents may be taken into consideration both in the management of cancer patients and in individual susceptibility to cancer. Indeed, dual acting factors with antimicrobial and antiproliferative potentials can result in improved therapeutic efficacy for cancer cell patients or reduced cancer predisposition. […]. In this study, 10 microbial cultures of this part, belonging to ten types of bacterial were used. The culture was grown in Mueller–Hinton Broth (Merck) for all the bacterial strains at 36 °C. Antimicrobial test was carried out by using disc-diffusion assay utilizing 100 µL of suspension with 10^8 CFU/mL of bacteria and 10^6 CFU/mL of yeast spread on Nutrient Agar and Potato Dextrose Agar, respectively. Also, the blank disc (Oxoid = 6 mm in diameter) was impregnated with 20 µL of each substance (105 µg/disc) and placed on the inoculated agar. Negative controls ([…]) were prepared using the same solvent (water) employed to dissolve each substance. […]. The inoculated plate was incubated at 36 °C for clinical bacterial strains. Antimicrobial activities were evaluated by obtaining the zone of inhibitory effect against the test organisms.

Another test relates to C6, HeLa, and HT29 cells. Briefly: DNA laddering (internucleosomal DNA fragmentation). The format is cell-based. The procedure:
Here, appearances of apoptotic morphology and DNA fragmentation may be a result of the activation of the extrinsic apoptotic pathways, including Ca^2+ dependent endonucleases. Apoptosis assay is determined by controlling cell death which included cleavage of DNA molecule into regular fragments. In this part, we observed that our molecules could act through containing apoptosis on some cells. More studies were conducted to obtain the antiproliferative and apoptotic potentials of Ag molecules which are consistent with this work[70],[75],[75],[79],[80].
By growing C6, HeLa, and HT29 cells were incubated with the molecules at 37 °C for overnight, DNA molecule was isolated in this part, and DNA fragmentation was visualized by agarose gel electrophoresis. […] A-HT29: 1, DNA standard; 2, HT29 Control; 3, HT29 + 2; 4, HT29 + 3; 5, HT29 + 4. B-C6: 1, DNA standard; 2, C6 + 2; 3, C6 + 3; 4, C6 + 4; 5, C6 Control. C-HeLa: 1, DNA standard; 2, HeLa + 2; 3, HeLa + 3; 4, HeLa + 4; 5, HeLa Control.
. Treated cell was harvested using a plastic scraper, and these fixed with 70 % ethanol, and also incubated for 48 hours. The ethanol amount was removed by centrifugation and air drying. The cell pellet was resuspended in 55 μL phosphate-citrate buffer (consisting of 192 parts of 0.2 M Na2HPO4 and 8 parts of 0.1 M citric acid, pH 7.8), and incubated at 37°C for 30 min in a shaker incubator. A 45 μL of supernatant was transferred to a microsantrifuge tube, mixed with 5 μL 0.25% Tween20 solution and 5 μL RNase A enzyme solution and also incubated for 30 min in a shaker incubator. […]

The subject of a further test is B. subtilis ATCC6633. Kind of test: Disc diffusion assay. Format: cell-based, Bacillus Subtilis. The procedure: as §1
A further test concerns B. cereus DSM 4312. Kind of test: Disc diffusion assay. Format: cell-based, Bacillus Cereus. The procedure: as §1
Another test deals with BSA (Bos taurus, UniProt P02769). Briefly: UV–Visible absorption titration, BSA binding constant. Details: species or system Bovine. The source says:
UV–Visible absorption spectroscopy technique was also used to study interactions between BSA and 1–4. […] The some results of [BSA]/(εa − εf) = [BSA]/(εb − εf) + 1/[Kb(εb − εf)] in Fig. 9, used and also obtained. The binding constants for the 1–4 were found as 2.4 ± 0.22 × 10^4 M^−1, 4.3 ± 0.29 × 10^4 M^−1, 3.4 ± 0.23 × 10^4 M^−1 and 4.8 ± 0.29 × 10^4 M^−1, respectively. In Fig. 9, the increase in BSA concentrations leads to a change in the absorption of the complexes resulting in hypochromism for 1 and 3 and hyperchromism for 2 and 4.
To obtain the interaction act of the molecules with calf thymus DNA and also to determine the binding constants (Kb) UV–Visible absorption spectroscopy method was utilized. Indeed, 2.5 mg calf thymus DNA in this part was dissolved in Tris–HCl buffer and stabile pending seven days in the refrigerator. The concentration level of calf thymus DNA was calculated spectrophotometrically assay at 260 nm. This method was done according to previous studies.

The test system of another test is S. gallinarum. Briefly: Disc diffusion assay. Format: cell-based, Salmonella Gallinarum. The procedure:
as §1

The test system of the next test is HT29. Briefly: BrdU Cell Proliferation Assay (BCPA). Format: cell-based, human. The source says: The antiproliferative activities of Ag(I) molecules and the starting molecules of the parent molecules, N-bishydeten and [Ag(CN)2]^− compound, on cells, were monitored utilizing by the BrdU Cell Proliferation Assay (BCPA) (Fig. 6).
The antiproliferative activity of the 2, 3, 4, [Ag(CN)2]^− and 5FU against various cell lines (HeLa ATCC CCL-2, C6 cells ATCC CCL-107, HT29 ATCC HTB-38, and Vero ATCC CCL-81) were preserved and maintained in Dulbecco’s modified eagle’s medium, supplemented with %2 antibiotic (Streptomycin-Penicillin) solution and 10% fetal bovine serum.
The cell suspension including 5×10^3 cells in 100 µL was supplied into the well cell plates (96-well cell). The therapies of these cells with 2, 3, 4 and [Ag(CN)2]^− in DMSO (max 0.1% DMSO) and 5-Florouracil (5 FU) molecule in DMSO (max 0.1% DMSO) separately at concentration 0.25, 0.50, 1.00, 1.50, 2.00, 2.50, 3.75, and 5.00 µg/mL were carried out. The last volume was adapted to 200 µL by mixture and DMEM and also incubated for 24 h at 37°C with 5% CO2. The antiproliferative activities of the 2, 3, 4 and [Ag(CN)2]^− were determined with using BrdU Cell proliferation ELISA Kit conforming to manufacturer’s assay.
IC50 values the concentration of a factor which required for other method of in vitro.

For another test, the system named is CT-DNA. Kind of test: Ethidium bromide exchange (fluorescence quenching) study. Format: binding, calf. The procedure:
Fig. S13. The emission spectra of EB-bound (a) DNA solutions in the absence and presence of increasing concentrations of 2, 3, and 4 25 μM (b), 50 μM (c), and 75 μM (d). [EB]=10.0 μM (e), [DNA] 50.0 μM. […] (µM) for determining KSV.

As to “[Cd(N-bishydeten)]4[Ag(CN)2]8[Ag(CN)]2 [Complex 4]”, the “inhibition zones, St. pyogenez ATCC176” value with St. pyogenez ATCC176 is recorded as 26 ± 0.0 mm. For the same substance, the “DNA fragmentation (DNA laddering)” value in the test on C6, HeLa, and HT29 cells is given as “induced the organization of DNA fragmentation”. Moreover, the “inhibition zones, B. subtilis ATCC6633” value with B. subtilis ATCC6633 stood at 34 ± 0.58 mm. For the same substance, the “inhibition zones, B. cereus DSM 4312” value with B. cereus DSM 4312 turned out to be 36 ± 1.0 mm. Also, the “binding constant with BSA” value at BSA is 4.8 ± 0.29 × 10^4 M^−1 and 4.8 x 10^4. For the same substance, the “inhibition zones, S. gallinarum” value in the test with S. gallinarum came out at 37 ± 1.0 mm. In the test with HT29, this substance displayed an IC50 of 480 ± 80 nM. Further, the “KSV (Stern–Volmer quenching constant, EB-DNA)” value (“KSV” below) in the test with CT-DNA is given as 1.1 ± 0.12 × 10^3 M^−1.
Take [Cu(N-bishydeten)Ag3(CN)5] [Complex 2]: in the test on St. pyogenez ATCC176, the “inhibition zones, St. pyogenez ATCC176” value is 32 ± 0.58 mm. Also, the “DNA fragmentation (DNA laddering)” value with C6, HeLa, and HT29 cells is listed as “induced the organization of DNA fragmentation”. Also, the “inhibition zones, B. subtilis ATCC6633” value with B. subtilis ATCC6633 is listed as 27 ± 0.58 mm. The “inhibition zones, B. cereus DSM 4312” value in the test on B. cereus DSM 4312 came out at 30 ± 0.58 mm. Besides, the “binding constant with BSA” value on BSA is 4.3 ± 0.29 × 10^4 M^−1 and 4.3 x 10^4. The “inhibition zones, S. gallinarum” value in the test on S. gallinarum is recorded as 35 ± 1.0 mm. The substance further came in with an IC50 in the test on HT29 of 870 ± 90 nM. Besides, in the test on CT-DNA, the “KSV” value was 5.0 ± 0.32 × 10^3 M^−1.
In the case of [Zn(N-bishydeten)Ag3(CN)5] [Complex 3], the “inhibition zones, St. pyogenez ATCC176” value in the test on St. pyogenez ATCC176 came out at 29 ± 0.58 mm. In addition, the “DNA fragmentation (DNA laddering)” value in the test on C6, HeLa, and HT29 cells is “induced the organization of DNA fragmentation”. Also, in the test on B. subtilis ATCC6633, the “inhibition zones, B. subtilis ATCC6633” value is on record as 31 ± 1.0 mm. Besides, in the test on B. cereus DSM 4312, the “inhibition zones, B. cereus DSM 4312” value stood at 34 ± 0.0 mm. For the same substance, at BSA, the “binding constant with BSA” value is 3.4 ± 0.23 × 10^4 M^−1 and 3.4 x 10^4. Moreover, the “inhibition zones, S. gallinarum” value with S. gallinarum worked out at 35 ± 0.58 mm. The same substance had an IC50 in the test on HT29 of 2370 ± 320 nM. In addition, in the test on CT-DNA, the “KSV” value is 13.7 ± 0.41 × 10^3 M^−1.
